From publication PMC3429931 (Biochemical Journal, 2012)

Experiments:
[1] = molecular target: T1, Dat (dopamine N-acetyltransferase), wild-type / full-length (Drosophila melanogaster, UniProt Q94521); test: isothermal titration calorimetry; type: binding
[2] = molecular target: Dat (dopamine N-acetyltransferase), wild-type / full-length (Drosophila melanogaster, UniProt Q94521, E82A); test: Ellman's reagent; settings: read-out: Tryptamine Km; 30 °C, 50 mM sodium phosphate pH 7.2, 500 mM NaCl, 2 mM EDTA, 2 mM AcCoA
Dat (dopamine N-acetyltransferase), wild-type / full-length (Drosophila melanogaster, UniProt Q94521, E82A), sequence (Q94521 36-275 E82A): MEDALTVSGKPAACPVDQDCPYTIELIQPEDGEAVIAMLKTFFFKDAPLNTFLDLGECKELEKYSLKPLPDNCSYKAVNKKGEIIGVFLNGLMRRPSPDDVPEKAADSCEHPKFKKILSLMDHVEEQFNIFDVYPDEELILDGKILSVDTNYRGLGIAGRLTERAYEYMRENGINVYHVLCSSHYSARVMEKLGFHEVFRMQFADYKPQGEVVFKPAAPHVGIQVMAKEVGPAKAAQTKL

[3] = molecular target: Dat (dopamine N-acetyltransferase), wild-type / full-length (Drosophila melanogaster, UniProt Q94521, S217A); test: Ellman's reagent; settings: read-out: Tryptamine Km; 30 °C, 50 mM sodium phosphate pH 7.2, 500 mM NaCl, 2 mM EDTA, 2 mM AcCoA
Dat (dopamine N-acetyltransferase), wild-type / full-length (Drosophila melanogaster, UniProt Q94521, S217A), sequence (Q94521 36-275 S217A): as the sequence (Q94521 36-275 E82A) above, with A47E, S182A counted along it

[4] = molecular target: T1, Dat (dopamine N-acetyltransferase), wild-type / full-length; test: Ellman's reagent; settings: read-out: Tryptamine Km; 30 °C, 50 mM sodium phosphate pH 7.2, 500 mM NaCl, 2 mM EDTA, 2 mM AcCoA
[5] = molecular target: Dat (dopamine N-acetyltransferase), wild-type / full-length (Drosophila melanogaster, UniProt Q94521, S221A); test: Ellman's reagent; settings: read-out: Tryptamine Km; 30 °C, 50 mM sodium phosphate pH 7.2, 500 mM NaCl, 2 mM EDTA, 2 mM AcCoA
Dat (dopamine N-acetyltransferase), wild-type / full-length (Drosophila melanogaster, UniProt Q94521, S221A), sequence (Q94521 36-275 S221A): as the sequence (Q94521 36-275 E82A) above, with A47E, S186A counted along it

[6] = molecular target: Dat (dopamine N-acetyltransferase), wild-type / full-length (Drosophila melanogaster, UniProt Q94521, Y220A); test: Ellman's reagent; settings: read-out: Tryptamine Km; 30 °C, 50 mM sodium phosphate pH 7.2, 500 mM NaCl, 2 mM EDTA, 2 mM AcCoA
Dat (dopamine N-acetyltransferase), wild-type / full-length (Drosophila melanogaster, UniProt Q94521, Y220A), sequence (Q94521 36-275 Y220A): as the sequence (Q94521 36-275 E82A) above, with A47E, Y185A counted along it

[7] = molecular target: Dat (dopamine N-acetyltransferase), wild-type / full-length (Drosophila melanogaster, UniProt Q94521, Y220F); test: Ellman's reagent; settings: read-out: Tryptamine Km; 30 °C, 50 mM sodium phosphate pH 7.2, 500 mM NaCl, 2 mM EDTA, 2 mM AcCoA
Dat (dopamine N-acetyltransferase), wild-type / full-length (Drosophila melanogaster, UniProt Q94521, Y220F), sequence (Q94521 36-275 Y220F): as the sequence (Q94521 36-275 E82A) above, with A47E, Y185F counted along it

T1 sequence (Q94521 36-275): as the sequence (Q94521 36-275 E82A) above, with A47E counted along it

Compound `CC(=O)SCCNC(=O)CCNC(=O)[C@H](O)C(C)(C)COP(=O)(O)OP(=O)(O)OC[C@H]1O[C@@H](n2cnc3c(N)ncnc32)[C@H](O)[C@@H]1OP(=O)(O)O` [AcCoA] has a Kd [1] of 5.43 ± 1.09 µM.
`NCCc1ccc(O)c(O)c1` [dopamine] showed a Kd [1] of 25.9 ± 2.5 µM.
`NCCc1c[nH]c2ccc(O)cc12` [serotonin] showed a Kd [1] of 223 µM.
`NCCc1c[nH]c2ccccc12` [tryptamine] showed a Km [2] of 1200 ± 100 µM, a Km [3] of 650 ± 90 µM and a Km [4] of 470 ± 90 µM. For the same compound, the Km [5] was 550 ± 70 µM, the Km [6] was 490 ± 70 µM and the Km [7] was 470 ± 80 µM.
